Legend:
[1] = test system: A/New York/18/2009 (H1N1); test: microbe, parasite or virus in culture; assay type: cell-based; conditions: Influenza A virus, H1N1, MDCK; read-out: Cell Protection Assay EC50 ± SD
[2] = test system: A/Cambodia/0371/2007 (H1N1); test: microbe, parasite or virus in culture; assay type: cell-based; conditions: Influenza A virus, MDCK, read-out: Cell Protection Assay EC50 ± SD

**Q.** `O=C(O)[C@H]1C2CCC(CC2)C1Nc1nc(-c2c[nH]c3ncc(F)cc23)ncc1F` (some centres unmarked) [Compound (1)] was tested. Which EC50 [1] did it give?
**A.** 0.59 nM

**Q.** What about the EC50 [2] of the same molecule?
**A.** 0.61 ± 0.33 nM
